Measured values: patent US12465585B2, “Compositions for the management of seizure induced neurotoxicity” (SAMI-SABINSA GROUP LIMITED, priority 2018, dated 2025)

Assays:
Type in all cases: in vivo
[1] = system: cortex of the brain; experiment: Anti-oxidant parameters in brain cortex, kainic acid induced seizure rat model; conditions: KA seizure rat model, KA vs control
Protocol: (§1) Two-month-old male Sprague-Dawley rats were purchased from commercial vendor and housed at 25°±2° C., with the humidity maintained at 55%, wood chip bedding, on a 12:12 hour dark/light cycle, with free access to food and water. All animal procedures were carried out in accordance with NIH and Auburn University Animal Care and Use Committee guidelines. The rats were divided into four groups (1. Control, 2. Kainic acid (10 mg/kg), 3. LD (Low Dose)-composition containing OBC 250 mg/kg+Kainic acid, and 4. High Dose (HD)-composition containing OBC 500 mg/kg+Kainic acid). Composition containing OBC was mixed with powdered feed and administered orally for 2 weeks prior to kainic-acid administration. […] Neuroscience. 1982; 7(10):2525-36; Jinde et al., Lack of kainic acid-induced gamma oscillations predicts subsequent CA1 excitotoxic cell death. Eur J Neurosci. 2009; 30(6):1036-55; Medvedev et al., Kainic acid induces distinct types of epileptiform discharge with differential involvement of hippocampus and neocortex. Brain Res Bull. 2000; 52(2):89-98). Typically, Racine scores include the following stages:
For the complete management of epilepsy, it is imperative to reduce the incidence of seizures and also to effectively manage and correct the damage to the neurons which is induced by recurrent seizure activity. Drugs which reduced the incidence of seizures may not effectively manage and correct the clinical conditions resulting from seizures. Failure to correct and manage such effects results in neurodegeneration. The ability of a composition comprising oroxylin A, baicalein and chrysin (OBC) [250 mg/kg—low dose (LD) and 500 mg/kg—high dose (HD)] to management of neurotoxicity associated by epilepsy was tested in kainic acid induced seizure rat model. The biochemical parameters like ROS, hydrogen peroxide, protein carbonyl levels, nitrite levels, glutathione content, mitochondrial activity, and caspase activity were estimated in the cortex of the rat models.

[2] = system: caspase 1; experiment: Caspase 1 activity in brain cortex, kainic acid induced seizure rat model; conditions: KA seizure rat model, KA vs control, OBC 250 and 500 mg/kg
Protocol: as §1
(§2) For the complete management of epilepsy, it is imperative to reduce the incidence of seizures and also to effectively manage and correct the damage to the neurons which is induced by recurrent seizure activity. […]

[3] = system: caspase 3; experiment: Caspase 3 activity in brain cortex, kainic acid induced seizure rat model; conditions: KA seizure rat model, KA vs control, OBC 250 and 500 mg/kg
Protocol: as §1, §2

[4] = OBC 250 and 500 mg/kg oral 2 weeks

## C=C(C)[C@H]1CN[C@H](C(=O)O)[C@H]1CC(=O)O [Kainic acid]
[1]; OBC 250 and 500 mg/kg
  Glutathione levels (FIG. 7): decreased
[1]; [4]
  Hydrogen peroxide levels (FIG. 4): significantly increased
  Lipid peroxidation (FIG. 5): significantly increased
  Nitrite content (FIG. 3): significantly increased
  Protein carbonyl content (FIG. 6): significantly increased
  ROS generation (FIG. 2): significantly increased
[2]
  Activity of caspase 1 (FIG. 9): significantly increased
[3]
  Activity of caspase 3 (FIG. 10): significantly increased
